Experimental data as given in patent publication US12617813B2, “Glycosylated histone deacetylase inhibitors and methods of making and using the same” (Georgia Tech Research Corporation, priority 2020, dated 2026).

Tests used:
[1] = target: HDAC2 (Homo sapiens, UniProt Q92769); assay: HDAC inhibition, HDAC2; format: biochemical
[2] = target: T1, HDAC6 (Homo sapiens, UniProt Q9UBN7); assay: HDAC inhibition, HDAC6; format: biochemical
T1 sequence (Q9UBN7 1-1215): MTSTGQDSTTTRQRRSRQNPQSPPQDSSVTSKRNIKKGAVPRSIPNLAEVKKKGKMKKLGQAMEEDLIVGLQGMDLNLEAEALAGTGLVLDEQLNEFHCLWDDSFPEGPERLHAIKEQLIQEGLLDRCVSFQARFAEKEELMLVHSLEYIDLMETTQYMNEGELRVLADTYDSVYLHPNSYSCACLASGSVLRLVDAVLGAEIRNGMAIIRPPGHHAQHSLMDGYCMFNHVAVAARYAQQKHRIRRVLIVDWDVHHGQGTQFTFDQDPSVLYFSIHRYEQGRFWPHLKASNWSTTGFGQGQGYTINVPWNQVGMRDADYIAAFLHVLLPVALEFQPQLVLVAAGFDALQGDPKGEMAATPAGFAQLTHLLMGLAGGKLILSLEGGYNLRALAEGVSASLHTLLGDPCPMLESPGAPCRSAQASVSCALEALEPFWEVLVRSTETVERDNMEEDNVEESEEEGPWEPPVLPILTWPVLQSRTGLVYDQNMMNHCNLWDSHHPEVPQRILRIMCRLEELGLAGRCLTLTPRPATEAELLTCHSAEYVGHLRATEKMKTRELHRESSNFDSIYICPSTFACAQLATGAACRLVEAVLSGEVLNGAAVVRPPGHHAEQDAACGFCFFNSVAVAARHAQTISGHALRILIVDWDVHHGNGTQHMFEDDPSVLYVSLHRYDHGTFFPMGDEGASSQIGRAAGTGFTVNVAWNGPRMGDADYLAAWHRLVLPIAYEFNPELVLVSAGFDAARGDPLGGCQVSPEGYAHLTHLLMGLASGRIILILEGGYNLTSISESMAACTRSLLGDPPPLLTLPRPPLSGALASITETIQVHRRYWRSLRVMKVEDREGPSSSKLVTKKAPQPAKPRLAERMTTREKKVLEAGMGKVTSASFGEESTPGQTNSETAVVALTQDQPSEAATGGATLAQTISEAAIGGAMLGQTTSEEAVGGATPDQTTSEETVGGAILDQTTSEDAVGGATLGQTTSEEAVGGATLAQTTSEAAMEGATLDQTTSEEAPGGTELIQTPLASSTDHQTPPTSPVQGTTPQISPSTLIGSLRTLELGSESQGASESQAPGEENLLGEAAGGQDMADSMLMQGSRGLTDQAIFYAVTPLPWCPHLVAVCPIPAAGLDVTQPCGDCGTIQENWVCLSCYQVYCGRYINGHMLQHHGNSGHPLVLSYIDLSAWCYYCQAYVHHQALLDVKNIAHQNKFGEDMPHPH

[3] = target: T2, HDAC8 (Homo sapiens, UniProt Q9BY41); assay: HDAC inhibition, HDAC8; format: biochemical
T2 sequence (Q9BY41 1-377): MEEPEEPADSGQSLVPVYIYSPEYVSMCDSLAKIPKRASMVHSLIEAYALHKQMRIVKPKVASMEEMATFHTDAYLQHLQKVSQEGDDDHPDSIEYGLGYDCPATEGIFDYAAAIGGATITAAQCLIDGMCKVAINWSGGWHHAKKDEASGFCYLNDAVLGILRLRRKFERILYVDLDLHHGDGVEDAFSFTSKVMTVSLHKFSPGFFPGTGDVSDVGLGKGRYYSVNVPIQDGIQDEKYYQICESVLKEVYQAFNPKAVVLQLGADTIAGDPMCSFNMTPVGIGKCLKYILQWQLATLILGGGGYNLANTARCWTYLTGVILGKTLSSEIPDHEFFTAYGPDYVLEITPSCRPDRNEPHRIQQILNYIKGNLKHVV

[4] = target: HDAC1 (Homo sapiens, UniProt Q13547); assay: HDAC inhibition, HDAC1; format: biochemical
Sequence of HDAC1 (Q13547 whole entry): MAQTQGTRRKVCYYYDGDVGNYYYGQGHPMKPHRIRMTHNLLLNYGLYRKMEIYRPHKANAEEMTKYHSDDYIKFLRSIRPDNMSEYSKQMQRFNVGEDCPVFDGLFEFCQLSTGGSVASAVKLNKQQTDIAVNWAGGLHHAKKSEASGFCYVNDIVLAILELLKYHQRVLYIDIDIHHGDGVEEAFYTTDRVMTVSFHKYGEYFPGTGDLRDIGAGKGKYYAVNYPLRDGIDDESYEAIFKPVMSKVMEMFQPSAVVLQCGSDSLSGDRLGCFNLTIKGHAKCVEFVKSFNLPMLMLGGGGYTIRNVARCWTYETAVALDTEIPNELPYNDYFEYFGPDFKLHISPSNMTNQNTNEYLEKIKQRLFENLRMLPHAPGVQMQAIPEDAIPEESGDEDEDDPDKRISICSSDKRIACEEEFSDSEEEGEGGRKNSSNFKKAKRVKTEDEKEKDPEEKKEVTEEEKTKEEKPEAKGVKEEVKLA

[5] = test system: Hep-G2; assay: Cell growth inhibition, Hep-G2; format: cell-based; details: Homo sapiens, HepG2, NI = No Inhibition at 100 uM
[6] = test system: VERO; assay: Cell growth inhibition, VERO; format: cell-based; details: Chlorocebus sabaeus, NI = No Inhibition at 100 uM
[7] = test system: A549; assay: Cell growth inhibition, A549; format: cell-based; details: Homo sapiens, NI = No Inhibition at 100 uM

Sequence of HDAC2 (Q92769 whole entry): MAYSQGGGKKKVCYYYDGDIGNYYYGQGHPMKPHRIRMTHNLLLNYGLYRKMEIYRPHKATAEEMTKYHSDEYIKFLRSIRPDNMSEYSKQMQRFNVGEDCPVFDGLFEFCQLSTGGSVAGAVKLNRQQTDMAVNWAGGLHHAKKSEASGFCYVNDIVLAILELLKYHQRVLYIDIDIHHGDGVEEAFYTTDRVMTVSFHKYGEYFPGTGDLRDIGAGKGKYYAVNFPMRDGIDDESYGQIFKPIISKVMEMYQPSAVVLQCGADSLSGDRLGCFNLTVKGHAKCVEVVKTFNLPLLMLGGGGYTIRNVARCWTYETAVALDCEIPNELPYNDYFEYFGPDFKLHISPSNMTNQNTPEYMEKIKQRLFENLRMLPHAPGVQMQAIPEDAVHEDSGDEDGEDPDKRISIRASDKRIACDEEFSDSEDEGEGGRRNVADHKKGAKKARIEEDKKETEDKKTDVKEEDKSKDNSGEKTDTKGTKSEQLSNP

| Molecule | IC50 [1] [nM] | IC50 [2] [nM] | IC50 [3] [nM] | IC50 [4] [nM] | IC50 [5] [µM] | IC50 [7] [µM] | IC50 [6] [µM] |
| --- | --- | --- | --- | --- | --- | --- | --- |
| CC(=O)OC[C@H]1OC(Oc2ccc(-c3cn(CCCCCCC(=O)NO)nn3)cc2)C(OC(C)=O)[C@@H](OC(C)=O)[C@@H]1OC(C)=O (stereo in doubt) [STR-V-176, (2R,3R,4S,5R,6S)-2-(acetoxymethyl)-6-(4-(1-(7-(hydroxyamino)-7-oxoheptyl)-1H-1,2,3-triazol-4-yl)phenoxy)tetrahydro-2H-pyran-3,4,5-triyl triacetate] | 4.2 | 1.05 | 271 | 1.43 |  |  |  |
| CC(=O)OC[C@H]1OC(Oc2ccc3cc(-c4cn(CCCCCCC(=O)NO)nn4)ccc3c2)C(OC(C)=O)[C@@H](OC(C)=O)[C@@H]1OC(C)=O (stereo in doubt) [STR-V-177, (2R,3R,4S,5R,6S)-2-(acetoxymethyl)-6-((6-(1-(7-(hydroxyamino)-7-oxoheptyl)-1H-1,2,3-triazol-4-yl)naphthalen-2-yl)oxy)tetrahydro-2H-pyran-3,4,5-triyl triacetate] | 13.2 | 1.65 | 718 | 2.2 |  |  |  |
| CC(=O)OC[C@H]1O[C@H](Oc2ccc(-c3cn(CCCCCCC(=O)NO)nn3)cc2)[C@H](OC(C)=O)[C@@H](OC(C)=O)[C@@H]1OC(C)=O [Compound 1] |  |  |  |  | 10.1 ± 1.2 | > 100 | > 100 |
| O=C(CCCCCCn1cc(-c2ccc(O[C@H]3O[C@H](CO)[C@@H](O)[C@H](O)[C@H]3O)cc2)nn1)NO [Compound 2] |  |  |  |  | 10.4 ± 0.6 | 100 ± 0.1 | 76.4 ± 0.2 |
| CC(=O)OC[C@H]1O[C@H](Oc2ccc(-c3cn(CCCCCCC(=O)NO)nn3)cc2)[C@@H](OC(C)=O)[C@@H](OC(C)=O)[C@@H]1OC(C)=O [Compound 4] |  |  |  |  | 8 ± 0.9 | 64.7 ± 7 | 77.4 ± 5.6 |
| CC(=O)OC[C@H]1O[C@H](Oc2ccc3cc(-c4cn(CCCCCCC(=O)NO)nn4)ccc3c2)[C@@H](OC(C)=O)[C@@H](OC(C)=O)[C@@H]1OC(C)=O [Compound 6] |  |  |  |  | 7.4 ± 0.9 | 39.6 ± 0.6 | 19.2 ± 0.9 |
| O=C(/C=C/c1ccc2cc(O[C@H]3O[C@H](CO)[C@@H](O)[C@H](O)[C@H]3O)ccc2c1)NO [Compound 8] |  |  |  |  | 66.1 | > 100 | 82.1 |
| O=C(CCCCCn1cc(-c2ccc3cc(O[C@H]4O[C@H](CO)[C@@H](O)[C@H](O)[C@@H]4O)ccc3c2)nn1)NO [Compound 9] |  |  |  |  | 13.5 ± 2.7 | 66.7 ± 16.1 | > 100 |
| O=C(/C=C/c1ccc2cc(O[C@H]3O[C@H](CO)[C@@H](O)[C@H](O)[C@@H]3O)ccc2c1)NO [Compound 11] |  |  |  |  | 78.5 ± 11.6 | > 100 | > 100 |
| O=C(/C=C/c1ccc(O[C@H]2O[C@H](CO)[C@@H](O)[C@H](O)[C@H]2O)cc1)NO [Compound 12] |  |  |  |  | 45.3 ± 5.9 | > 100 | > 100 |
| C[C@H]1C[C@@H](N(C)C)[C@H](O)C(Oc2ccc(-c3cn(CCCCCCC(=O)NO)nn3)cc2)O1 (stereo partly drawn) [Compound 13] |  |  |  |  | 9.6 ± 3.4 | 33.7 ± 1.8 | 76.4 |
| O=C(CCCCCn1cc(-c2ccc3cc(O[C@H]4O[C@H](CO)[C@@H](O)[C@H](O)[C@@H]4O)ccc3c2)nn1)NO [STR-II-35] | 47.1 | 2.03 | 1970 | 26.8 |  |  |  |
| O=C(/C=C/c1ccc2cc(O[C@H]3O[C@H](CO)[C@@H](O)[C@H](O)[C@H]3O)ccc2c1)NO [STR-V-115] | 1030 | 16.5 | 461 | 427 |  |  |  |
| O=C(/C=C/c1ccc(O[C@H]2O[C@H](CO)[C@@H](O)[C@H](O)[C@H]2O)cc1)NO [STR-V-121] | 6500 | 75.4 | 1820 | 3840 |  |  |  |
| O=C(CCCCCCn1cc(-c2ccc(O)cc2)nn1)NO [STR-V-183, N-hydroxy-7-(4-(4-hydroxyphenyl)-11-1-1,2,3-triazol-1-yl)heptanamide, reference compound] | 27.2 | 1.05 | 1960 | 12.2 |  |  |  |
| (2R,3R,4S,5R,6R)-2-(acetoxymethyl)-6-(4-(1-(7-(((tert-butyldiphenylsilyl)oxy)-amino)-7-oxoheptyl)-1H-1,2,3-triazol-4-yl)phenoxy)tetrahydro-2H-pyran-3,4,5-triyl triacetate [STR-V-167] | 66.4 | 2.61 | 311 | 31.8 |  |  |  |
| (2S,3R,4S,6R)-4-(dimethylamino)-2-(4-(1-(7-(hydroxyamino)-7-oxoheptyl)-1H-1,2,3-triazol-4-yl)phenoxy)-6-methyltetrahydro-2H-pyran-3-yl acetate [STR-V-165] | 27.5 | 5.22 | 806 | 10.3 |  |  |  |

More lines, main results first:

| IC50 [1] [nM] | IC50 [2] [nM] | IC50 [3] [nM] | IC50 [4] [nM] | IC50 [5] [µM] | IC50 [7] [µM] | Molecule | IC50 [6] [µM] |
| --- | --- | --- | --- | --- | --- | --- | --- |
|  |  |  |  | 6.7 ± 1.6 | 77.2 ± 4.3 | O=C(CCCCCCn1cc(-c2ccc3cc(O[C@H]4O[C@H](CO)[C@@H](O)[C@H](O)[C@H]4O)ccc3c2)nn1)NO [Compound 3] | 34.1 ± 3 |
|  |  |  |  | 22.3 ± 2 | > 100 | O=C(CCCCCCn1cc(-c2ccc(O[C@H]3O[C@H](CO)[C@@H](O)[C@H](O)[C@@H]3O)cc2)nn1)NO [Compound 5] | 65.5 ± 8.3 |
|  |  |  |  | 7.5 ± 0.8 | 20.1 ± 1.1 | O=C(CCCCCCn1cc(-c2ccc3cc(O[C@H]4O[C@H](CO)[C@@H](O)[C@H](O)[C@@H]4O)ccc3c2)nn1)NO [Compound 7] | 33.6 ± 5.5 |
|  |  |  |  | 42.8 ± 0.5 | > 100 | O=C(CCCCCn1cc(-c2ccc(O[C@H]3O[C@H](CO)[C@@H](O)[C@H](O)[C@@H]3O)cc2)nn1)NO [Compound 10] | > 100 |
|  |  |  |  |  | 59.9 | Nc1ccc(F)cc1NC(=O)CCCCCCn1cc(-c2ccc(O[C@H]3O[C@H](CO)[C@@H](O)[C@H](O)[C@H]3O)cc2)nn1 [Compound 14] | > 100 |
|  |  |  |  | ~100 | > 100 | Nc1cc(F)ccc1NC(=O)CCCCCCn1cc(-c2ccc(O[C@H]3O[C@H](CO)[C@@H](O)[C@H](O)[C@H]3O)cc2)nn1 [Compound 15] | > 100 |
|  |  |  |  | > 100 | 49.5 | Nc1ccc(-c2cccs2)cc1NC(=O)CCCCCCn1cc(-c2ccc(O[C@H]3O[C@H](CO)[C@@H](O)[C@H](O)[C@H]3O)cc2)nn1 [Compound 16] | > 100 |
| 146 | 6.45 | 3590 | 68.2 |  |  | O=C(CCCCCn1cc(-c2ccc(O[C@H]3O[C@H](CO)[C@@H](O)[C@H](O)[C@@H]3O)cc2)nn1)NO [STR-II-29] |  |
| 10.4 | 0.719 | 319 | 3.28 |  |  | O=C(CCCCCCn1cc(-c2ccc3cc(O[C@H]4O[C@H](CO)[C@@H](O)[C@H](O)[C@@H]4O)ccc3c2)nn1)NO [STR-II-36] |  |
